Biological target: purified VDAC1 (Homo sapiens, UniProt P21796)
Experiment: Glass-bound peptide array probed with purified VDAC1 and anti-VDAC1 antibodies
Assay type: binding
Parameters: key: +: low; ++: medium; +++: high
Conditions: glass-bound peptide array incubated 4 h with purified VDAC1 (64 nM), chemiluminescence; for Spot intensity, detected using anti-VDAC1 internal sequence: antibody against VDAC1 amino acids 150-250; for Spot intensity, detected using anti-N-terminus VDAC1: antibody against VDAC1 N-terminus
Method: A customized peptide array was produced by INTAVIS Peptide Services (GmbH & Co. KG, Tübingen, Germany). It comprised 768 peptide sequences derived from 19 VDAC1-interacting proteins that were arrayed on a glass slide. Each peptide was composed of 25 amino acids with an overlap of 15 amino acids with the peptides before and following it.
The interaction of purified VDAC1 with glass-bound peptide arrays was assessed by washing the slide three times, 10 min each, with TBST (150 mM NaCl, 50 mM Tris/HCl, pH 7.4, 0.1% Tween-20), followed by overnight incubation with blocking buffer (TBS, pH 7.8, containing low-fat dry milk, 2.5%, w/v) at 4 °C. Then slides were incubated with purified VDAC1 in protein-interacting buffer (20 mM HEPES, 100 mM KCl, pH,7.4, PBS) for 4 h at room temperature (RT). After washing, with TBST, slides were incubated overnight at 4 °C with anti-VDAC1 antibody against a sequence of 150–250 amino acids or against the VDAC1-N-terminus. Slides were then washed with TBST, followed by the appropriate secondary anti-HRP conjugated antibody for 2 h at RT. They were washed again with TBST and developed using enhanced chemiluminescence EZ-ECL (Biological Industries), according to the manufacturer’s instructions. The signal was captured in the dark using FUSION-FX (Vilber Lourmat) software.

purified VDAC1, sequence (P21796 whole entry, species assumed): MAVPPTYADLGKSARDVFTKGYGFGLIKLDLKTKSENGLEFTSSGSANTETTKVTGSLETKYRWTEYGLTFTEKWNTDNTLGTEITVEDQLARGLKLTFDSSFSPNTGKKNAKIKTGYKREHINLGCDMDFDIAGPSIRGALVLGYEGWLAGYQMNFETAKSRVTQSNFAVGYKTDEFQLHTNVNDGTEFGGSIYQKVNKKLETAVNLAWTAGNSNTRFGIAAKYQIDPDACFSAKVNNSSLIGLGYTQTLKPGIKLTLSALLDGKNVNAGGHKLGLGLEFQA

Row | Sequence | Spot intensity, detected using anti-VDAC1 internal sequence | Spot intensity, detected using anti-N-terminus VDAC1
1 | AAAATTVAWYQVSPLAARLLYPYLA [1H10, array peptide from TSPO] | ++ | 
2 | AGATSSLTPSRGPVSPSVSFQPLAR [1K9, array peptide from MAVS] |  | +++
3 | AVDTDSPREVFFRVAADMFSDGNFN [1B5, array peptide from BAX] |  | +++
4 | DDEGMGEEPSPFRGRSRSAPPNLWA [1A10, array peptide from BAD] |  | ++
5 | DQCTGLQGFLVFHSFGGGTGSGFTS [2A2, array peptide from tubulin alpha 1b] |  | +
6 | DQGGWGLPLAESLKRLMSLSPGRPP [1B13, array peptide from BAX] | + | +++
7 | EQGVLSFWRGNLANVIRYFPTQALN [1F19, array peptide from ANT3] | + | +++
8 | FKDKYKQIFLGGVDKHTQFWRYFAG [1F22, array peptide from ANT3] |  | +
9 | FPTQALNFAFKDKYKQIFLGGVDKH [1F21, array peptide from ANT3] |  | +++
10 | FRDEGGKAFFKGAWSNVLRGMGGAF [1G17, array peptide from ANT3] |  | +
11 | FRGLGDCLVKITKSDGIRGLYQGFS [1G5, array peptide from ANT3] |  | +++
12 | GGGPTSSEQIMKTGALLLQGFIQDR [1A21, array peptide from BAX] |  | +
13 | GNLANVIRYFPTQALNFAFKDKYKQ [1F20, array peptide from ANT3] | + | +++
14 | GTATQMRQSSSWTRVFQSWWDRNLG [1A16, array peptide from BAD] |  | ++
15 | HSSYPAGTEDDEGMGEEPSPFRGRS [1A9, array peptide from BAD] |  | ++
16 | HVAENPSIQLLEGNPGPPADPDGGP [1L14, array peptide from MAVS] | +++ | 
17 | IFVGIKKKEERADLIAYLKKATNE [1D15, array peptide from cytochrome c] | + | ++
18 | IKKKEERADLIAYLKKATNE [1D16, array peptide from cytochrome c] | + | ++
19 | IMGWTLDFLRERLLGWIQDQGGWGL [1B11, array peptide from BAX] |  | +++
20 | IMKTGALLLQGFIQDRAGRMGGEAP [1A22, array peptide from BAX] |  | +++
21 | KDFLAGGIAAAISKTAVAPIERVKL [1F13, array peptide from ANT3] |  | ++
22 | KGLPRPKSAGTATQMRQSSSWTRVF [1A15, array peptide from BAD] |  | ++
23 | KLQMGKKLPLHLTLPQALPQYAGSG [1N5, array peptide from CD4] |  | ++
24 | KTGPNLHGLFGRKTGQAPGYSYTAA [1D9, array peptide from cytochrome c] |  | +
25 | MTEQAISFAKDFLAGGIAAAISKTA [1F12, array peptide from ANT3] |  | +

Results, then the sequence that gave them:

Row | Spot intensity, detected using anti-VDAC1 internal sequence | Spot intensity, detected using anti-N-terminus VDAC1 | Sequence
26 | + | +++ | AIYDICRRNLDIERPTYTNLNRLIS [2A11, array peptide from tubulin alpha 1b]
27 | ++ | +++ | AKYDDIKKVVKQASEGPLKGILGYT [2C18, array peptide from GAPDH1]
28 |  | ++ | ALSSQHQARIEIESFYEGEDFSETL [2L3, array peptide from BiP1]
29 | + | ++ | ASIHGYLGIVELLVSLGADVNAQEP [2F17]
30 |  | + | AVIGGSAGASPPSTLTPDSRRVARP [2D10, array peptide from Mcl-1]
31 | + |  | DELYRQSLEIISRYLREQATGAKDT [2D23, array peptide from Mcl-1]
32 |  | + | EDFSETLTRAKFEELNMDLFRSTMK [2L5, array peptide from BiP1]
33 | +++ | ++ | ELEEIVQPIISKLYGSAGPPPTGEE [2M15, array peptide from BiP1]
34 | + | ++ | ERPLTKDNHLLGTFDLTGIPPAPRG [2L22, array peptide from BiP1]
35 | + |  | EVAASAILTAQLDEELGGTPVQSRV [2I10, array peptide from gelsolin isoform b]
36 | ++ |  | FDGALNVDLTEFQTNLVPYPRIHFP [2A15, array peptide from tubulin alpha 1b]
37 |  | + | FTEDELPYDDCVFGGQRLTL [2G5]
38 |  | + | FVDWCPTGFKVGINYQPPTVVPGGD [2B2, array peptide from tubulin alpha 1b]
39 |  | + | GGVFTKLINRNTTIPTKKSQVFSTA [2O21, array peptide from HSP-70]
40 |  | + | GKEPAHLMSLFGGKPMIIYKGGTSR [2I13, array peptide from gelsolin isoform b]
41 |  | + | GRTWNDPSVQQDIKFLPFKVVEKKT [2K5, array peptide from BiP1]
42 | ++ | ++ | IEDFKAKKKELEEIVQPIISKLYGS [2M14, array peptide from BiP1]
43 | ++ | + | IEIESFYEGEDFSETLTRAKFEELN [2L4, array peptide from BiP1]
44 |  | ++ | ISAMVLTKMKETAEAYLGKKVTHAV [2K10, array peptide from BiP1]

Row | Spot intensity, detected using anti-VDAC1 internal sequence | Spot intensity, detected using anti-N-terminus VDAC1 | Sequence
45 |  | + | ITATQKTVDGPSGKLWRDGRGALQN [2C10, array peptide from GAPDH1]
46 |  | + | KCELSSSVQTDINLPYLTMDSSGPK [2O6, array peptide from HSP-70]
47 | +++ |  | KFHGTVKAENGKLVINGNPITIFQE [2B20, array peptide from GAPDH1]
48 | ++ | +++ | KIISNASCTTNCLAPLAKVIHDNFG [2C6, array peptide from GAPDH1]
49 |  | + | KVQRAVCMLSNTTAIAEAWARLDHK [2B5, array peptide from tubulin alpha 1b]
50 | ++ |  | LDIERPTYTNLNRLISQIVSSITAS [2A12, array peptide from tubulin alpha 1b]
51 |  | + | LIGIPPAPRGVPQIEVTFDIDANGI [2P3, array peptide from HSP-70]
52 | + | +++ | LLGTFDLTGIPPAPRGVPQIEVTFE [2L23, array peptide from BiP1]
53 | + | +++ | LVFHSFGGGTGSGFTSLLMERLSVD [2A3, array peptide from tubulin alpha 1b]
54 |  | + | MEVIRQVKGDLAFLNFQNNLQQTPL [2F6]
55 |  | +++ | MGKVKVGVNGFGRIGRLVTRAAFNS [2B14, array peptide from GAPDH1]
56 |  | +++ | MVVEHPEFLKAGKEPGLQIWRVEKF [2G8, array peptide from gelsolin isoform b]
57 |  | + | NGKLVINGNPITIFQERDPSKIKWG [2B21, array peptide from GAPDH1]
58 | ++ | + | NMKLTRAQFEGIVTDLIRRTIAPCQ [2O9, array peptide from HSP-70]
59 |  | + | PASTGAAKAVGKVIPELNGKLTGMA [2C13, array peptide from GAPDH1]
60 |  | ++ | PLAESITDVLVRTKRDWLVKQRGWD [2E12, array peptide from Mcl-1]
61 |  | +++ | PYQLTWGRPSTRIQQQLGQLTLENL [2F24]
62 |  | ++ | QGCLASVGVLTQSCTTPHLHSILKA [2F13]
63 | ++ |  | QLTLENLQMLPESEDEESYDTESEF [2G2]
